Measurements published in patent publication US20070037807A1, “Pyridine compounds as inhibitors of dipeptidyl peptidase IV” (priority 2003, published 2007).
Counter-ions that a name gives are not always drawn.

Test system: not given
Assay: not given
Conditions: not given

Row | melting point [°C] | Structure (SMILES)
1 | 56 to 57 | COC(=O)c1c(C)nc(CC(C)C)c(CN)c1-c1ccc(C)cc1 [Example 1, methyl 5-(aminomethyl)-6-isobutyl-2-methyl-4-(4-methylphenyl)nicotinate]
2 | 81 to 83 | Cc1nc(CC(C)C)c(CN)c(-c2ccc(Cl)cc2)c1C(=O)OC(C)(C)C [Example 23, tert-butyl 5-(aminomethyl)-4-(4-chlorophenyl)-6-isobutyl-2-methylnicotinate]

Target: T1, dipeptidyl peptidase IV (Rattus norvegicus, UniProt P14740)
T1 construct: from tissue; host or cells: SD rat blood plasma
Assay: Determination of dipeptidyl peptidase IV inhibitory activity in rat plasma
Assay type: biochemical, SD rat
Conditions: not given
Method: Determination of Dipeptidyl Peptidase IV Inhibitory Activity in Rat Plasma
An N,N-dimethylformamide solution (1 μL) containing the test compound was added to a mixture of water (69 μL), 1 M Tris-hydrochloride buffer (10 μL, pH 7.5) and 1 mM aqueous Gly-Pro-p-NA solution (100 μL) to prepare a mixed solution. […] At the same time, an increase (ΔODc) in absorbance of the reaction mixture without the test compound, and an increase (ΔODb) in absorbance of the reaction mixture without the test compound and the enzyme were determined and percent inhibition of dipeptidyl peptidase IV enzyme activity was calculated from the following formula: {1-[(ΔODs−ΔODb)/(ΔODc−ΔODb)]}×100

T1 sequence (P14740 37-767 limits assumed): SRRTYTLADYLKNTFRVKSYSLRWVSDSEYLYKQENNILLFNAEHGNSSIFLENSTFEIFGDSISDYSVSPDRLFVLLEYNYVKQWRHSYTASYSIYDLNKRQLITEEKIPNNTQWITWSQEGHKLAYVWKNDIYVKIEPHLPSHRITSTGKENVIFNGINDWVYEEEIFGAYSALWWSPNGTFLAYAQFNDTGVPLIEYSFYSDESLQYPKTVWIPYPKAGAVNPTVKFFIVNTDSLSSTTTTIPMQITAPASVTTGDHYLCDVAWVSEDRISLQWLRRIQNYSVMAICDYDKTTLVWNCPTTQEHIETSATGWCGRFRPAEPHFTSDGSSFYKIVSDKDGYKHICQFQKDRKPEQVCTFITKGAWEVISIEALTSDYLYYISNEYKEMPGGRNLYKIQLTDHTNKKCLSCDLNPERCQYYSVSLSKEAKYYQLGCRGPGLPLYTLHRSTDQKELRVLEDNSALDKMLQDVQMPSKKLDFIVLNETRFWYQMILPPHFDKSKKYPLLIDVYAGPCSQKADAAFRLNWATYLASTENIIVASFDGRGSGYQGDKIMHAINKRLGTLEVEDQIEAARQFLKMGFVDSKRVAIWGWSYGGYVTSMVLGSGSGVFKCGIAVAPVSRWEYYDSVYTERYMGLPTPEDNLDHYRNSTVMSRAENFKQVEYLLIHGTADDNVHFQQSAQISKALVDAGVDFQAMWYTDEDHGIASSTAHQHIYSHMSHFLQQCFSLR

Row | Structure (SMILES) | IC50 [nM]
3 | Cc1ccc(-c2c(CN)c(CC(C)C)nc(C)c2C(=O)OCc2ccc(C(=O)O)cc2)cc1 [Example 170, 4-[({[5-(aminomethyl)-6-isobutyl-2-methyl-4-(4-methylphenyl)pyridin-3-yl]carbonyl}oxy)methyl]benzoic acid dihydrochloride] | 100

Same assay, conditions: Experimental Example 1; SD rat plasma, Gly-Pro-p-NA substrate, 30° C., 1 hr, absorbance 405 nm; read-out: IC50 value (dipeptidyl peptidase IV inhibitory activity)

Row | IC50 [nM] | Structure (SMILES)
4 | 520 | COC(=O)c1c(C)nc(CC(C)C)c(CN)c1-c1ccc(C)cc1 [Example 1, methyl 5-(aminomethyl)-6-isobutyl-2-methyl-4-(4-methylphenyl)nicotinate]

Same assay, conditions: Experimental Example 2; same manner as Experimental Example 1; SD rat plasma, Gly-Pro-p-NA substrate, 30° C.; read-out: IC50 value (dipeptidyl peptidase IV inhibitory activity)

Row | Structure (SMILES) | IC50 [nM]
5 | Cc1ccc(-c2c(CSc3ccccc3C(N)=O)c(C)nc(CC(C)C)c2CN)cc1 [Example 210, 2-({[5-(aminomethyl)-6-isobutyl-2-methyl-4-(4-methylphenyl)pyridin-3-yl]methyl}thio)benzamide dihydrochloride] | 12
6 | Cc1ccc(-c2c(CC(=O)N3CCC(C(=O)O)CC3)c(C)nc(CC(C)C)c2CN)cc1 [Example 422, 1-{[5-(aminomethyl)-6-isobutyl-2-methyl-4-(4-methylphenyl)pyridin-3-yl]acetyl}piperidine-4-carboxylic acid dihydrochloride] | 7.3
7 | Cc1ccc(-c2c(CC(=O)N3CCOCC3)c(C)nc(CC(C)C)c2CN)cc1 [Example 312, {[2-isobutyl-6-methyl-4-(4-methylphenyl)-5-(2-morpholin-4-yl-2-oxoethyl)pyridin-3-yl]methyl}amine dihydrochloride] | 20

The remaining lines, values ahead:

Row | IC50 [nM] | Structure (SMILES)
8 | 5.1 | Cc1ccc(-c2c(CN)c(CC(C)C)nc(C(C)C)c2C(=O)O)cc1 [Example 26, 5-(aminomethyl)-6-isobutyl-2-isopropyl-4-(4-methylphenyl)nicotinic acid dihydrochloride]
9 | 3.5 | COC(=O)c1cn(C)nc1OCc1c(C)nc(CC(C)C)c(CN)c1-c1ccc(C)cc1 [Example 305, methyl 3-{[5-(aminomethyl)-6-isobutyl-2-methyl-4-(4-methylphenyl)pyridin-3-yl]methoxy}-1-methyl-1H-pyrazole-4-carboxylate dihydrochloride]
10 | 15 | Cc1ccc(-c2c(CN)c(CC(C)C)nc(C)c2NC(=O)c2cnoc2)cc1 [Example 350, N-[5-(aminomethyl)-6-isobutyl-2-methyl-4-(4-methylphenyl)pyridin-3-yl]isoxazole-4-carboxamide dihydrochloride]
11 | 16 | CCOC(=O)C1CCN(C(=O)Cc2c(C)nc(CC(C)C)c(CN)c2-c2ccc(C)cc2)CC1 [Example 421, ethyl 1-{[5-(aminomethyl)-6-isobutyl-2-methyl-4-(4-methylphenyl)pyridin-3-yl]acetyl}piperidine-4-carboxylate dihydrochloride]
12 | 7.4 | Cc1ccc(-c2c(CN)c(CC(C)C)nc(C)c2NC(=O)c2ccc(F)cc2)cc1 [Example 267, N-[5-(aminomethyl)-6-isobutyl-2-methyl-4-(4-methylphenyl)pyridin-3-yl]-4-fluorobenzamide dihydrochloride]
